Common to all, as to experiment: Picrotoxin inhibition of GABA responses, two electrode voltage clamp in Xenopus oocytes
What all share (format): cell-based
Background: In two-electrode clamp one electrode senses voltage and the other passes current.

The target in experiment [1] is T1, A20′S mutant Drosophila RDL receptor (Drosophila melanogaster, UniProt P25123, A319S).
T1 construct: expressed in transfected cells; host or cells: Xenopus laevis oocytes injected with cRNA
T1 sequence (P25123 45-606 A319S): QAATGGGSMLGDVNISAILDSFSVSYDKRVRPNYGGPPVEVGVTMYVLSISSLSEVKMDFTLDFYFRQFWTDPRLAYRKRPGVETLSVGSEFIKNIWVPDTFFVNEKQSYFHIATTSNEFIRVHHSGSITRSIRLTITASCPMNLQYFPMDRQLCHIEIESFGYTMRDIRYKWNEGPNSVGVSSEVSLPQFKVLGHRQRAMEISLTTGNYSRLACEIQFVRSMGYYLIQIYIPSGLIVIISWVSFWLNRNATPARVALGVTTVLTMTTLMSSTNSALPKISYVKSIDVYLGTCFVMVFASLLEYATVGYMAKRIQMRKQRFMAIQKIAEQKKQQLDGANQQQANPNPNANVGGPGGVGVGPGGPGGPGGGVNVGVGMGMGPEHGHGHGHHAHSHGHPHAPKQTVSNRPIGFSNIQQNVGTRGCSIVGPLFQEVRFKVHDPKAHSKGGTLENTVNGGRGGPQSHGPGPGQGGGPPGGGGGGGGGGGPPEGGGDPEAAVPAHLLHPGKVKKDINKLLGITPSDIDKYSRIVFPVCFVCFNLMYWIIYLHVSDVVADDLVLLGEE
As to the method: (§1) X. laevis oocyte-positive females were purchased from NASCO (Fort Atkinson, Wisconsin, USA) and maintained according to standard methods. Harvested stage V-VI Xenopus oocytes were washed in four changes of ND96 (96 mM NaCl, 2 mM KCl, 1 mM MgCl2, 1 mM CaCl2, 5 mM HEPES, pH 7.5), de-folliculated in 1.5 mg ml^−1 collagenase Type 1A for approximately 2 h, washed again in four changes of ND96 and stored in ND96 containing 2.5 mM sodium pyruvate, 0.7 mM theophylline and […].
(§2) Drosophila RDL subunit cDNA (kindly gifted from N.Millar) was subcloned into pGEMHE for oocyte expression as previously described ([McGonigle and Lummis, 2010], [Millar et al., 1994]). Site directed mutagenesis was performed with the QuikChange mutagenesis kit (Agilent, La Jolla, CA). cRNA was transcribed in vitro from linearised pGEMHE cDNA template using the mMessage mMachine T7 Transcription kit (Ambion, Austin, Texas, USA). Stage V and VI oocytes were injected with 5 ng cRNA, incubated at 18 °C, and currents recorded 18–24 h post-injection.
(§3) Xenopus oocytes were clamped at −60 mV using an OC-725 amplifier (Warner Instruments, Connecticut, USA), Digidata 1322A and the Strathclyde Electrophysiology Software Package (Department of Physiology and Pharmacology, University of Strathclyde, UK), or using the Roboocyte (MultiChannel Systems). Currents were recorded at 5 kHz and filtered at a frequency of 1 kHz. Micro-electrodes were fabricated from borosilicate glass (GC120TF-10, Harvard Apparatus, Edenbridge, Kent, UK) using a one stage horizontal pull (P-87, Sutter Instrument Company, California, USA) and filled with 3 M KCl. Pipette resistances ranged from 1.0 to 2.0 MΩ. Oocytes were perfused with ND96 at a constant rate of 12 ml min^−1. Drug application was via a simple gravity fed system calibrated to run at the same rate.
(§4) Analysis and curve fitting was performed using Prism v5 (GraphPad Software, San Diego, California, USA). Concentration-response data for each oocyte was normalised to the maximum current for that oocyte. The mean and S.E.M. for a series of oocytes were fitted to the four parameter logistic equation in Prism.

Experiment [2] concerns the target T2, A21′Q mutant Drosophila RDL receptor (Drosophila melanogaster, UniProt P25123, A320Q).
T2 construct: expressed in transfected cells; host or cells: Xenopus laevis oocytes injected with cRNA
T2 sequence (P25123 45-606 A320Q): T1 sequence (P25123 45-606 A319S) with S275A, A276Q
The method, then:
as §1, §2, §3, §4

Experiment [3] has as its target T3, wild type Drosophila RDL receptor (Drosophila melanogaster, UniProt P25123).
T3 construct: expressed in transfected cells; host or cells: Xenopus laevis oocytes injected with cRNA
T3 sequence (P25123 45-606): T1 sequence (P25123 45-606 A319S) with S275A
As to the method: as §1, §2, §3, §4

Changes are numbered by the printed parent chain.

In general, IC50 refers to the concentration needed to halve the response being measured.

Consider picrotoxin, for which the IC50 in experiment [1] was 46 nM; in experiment [2], 360 nM; in experiment [3] it was 180 nM. Further, the “Picrotoxin pIC50” value in experiment [1] turned out to be 7.33 ± 0.13; in experiment [2], 6.45 ± 0.25; in experiment [3], 6.75 ± 0.22.

Values taken from paper PMC4261083, “An atypical residue in the pore of Varroa destructor GABA-activated RDL receptors affects picrotoxin block and thymol modulation” (Insect Biochemistry and Molecular Biology, 2014).
